Laboratory results from patent US20260263554A1, “COMPOSITION COMPRISING CPNE7 PROTEIN OR CPNE7 PROTEIN-DERIVED PEPTIDE FOR REMOVING REACTIVE OXYGEN SPECIES IN CELLS” (HYSENSBIO CO., LTD, priority 2022, published 2026).

What was measured:
hDPCs [1] = test: Reactive oxygen species level with DCFDA, confocal microscope; assay type: cell-based, human; settings: 1 mM H2O2, 10 μg/mL Selcopintide, imaged for approximately one hour
Description: Cultured hDPCs were seeded into 35 mm culture dishes for a confocal microscope at a density of 1×10^5 cells, cultured for 24 hours, and then treated with 1 mM H2O2 and treated with 100 ng/mL of rCPNE7. Then, images were taken for approximately one hour using a confocal microscope.
Cultured hDPCs were seeded into 35 mm culture dishes for a confocal microscope at a density of 1×10^5 cells, cultured for 24 hours, and then treated with 1 mM H2O2 and treated with 10 μg/mL of Selcopintide. Thereafter, images were taken for approximately one hour using a confocal microscope.

CCD986SK cells [2] = test: B-gal staining, cell aging in dermal fibroblasts; assay type: cell-based; settings: 1 mM H2O2, Selcopintide 1, 10, 100 and 500 μg/mL, 24 hours, compared to H2O2-only-treated group
Description: Cultured CCD986SK cells were seeded into 6-well plates at a density of 1×10^5 cells, cultured for 24 hours, and then treated with 1 mM H2O2 and treated with 1 μg/mL, 10 μg/mL, 100 μg/mL, and 500 μg/mL of Selcopintide. After 24 hours, the cells were fixed with 4% paraformaldehyde.
B-gal staining was performed on the fixed cells for 24 hours to compare the degrees of cell aging. 24 hours after treatment with 1 mM H2O2, a large number of B-gal positive CCD986SK cells were identified.

[3] = tested on: Human dental pulp cells (hDPCs); test: Optical microscope observation of hDPCs after H2O2 and test substance; assay type: cell-based; settings: 24 hours
Description: Human dental pulp cells (hDPCs) were cultured in an α-MEM medium containing 10% FBS under 37° C. and 5% CO2 conditions.
hDPCs were seeded into 35 mm culture dishes at a density of 1×10^5 cells, cultured for 24 hours, treated with H2O2 at a concentration of 5 uM, 100 uM, 1 mM, or 2 mM, respectively, and then treated with 100 ng/ml of a recombinant CPNE7 protein and cultured for 24 hours. After the culture was completed, the cultured cells were washed with PBS, and observed using an optical microscope. At this time, the hDPCs cultured without treating the recombinant CPNE7 protein (rCPNE7) were used as the control.
Cultured hDPC cells were seeded into 6-well plates at a density of 1×10^5 cells per well, cultured for 24 hours, and then treated with 1 mM hydrogen peroxide (H2O2) and treated with Selcopintide at concentrations of 1 μg/mL, 10 μg/mL, 100 μg/mL, and 500 μg/mL for 24 hours. Untreated hDPCs were used as the control.

CCD986SK cells [4] = test: Amount of living cells by WST-8 in dermal fibroblasts; assay type: cell-based; settings: 1 mM H2O2, 1, 10, 100 and 500 μg/mL Selcopintide, 24 hours, compared to H2O2-only-treated group
Description: Cultured CCD986SK cells were seeded into 96-well plates at a density of 3×10^3 cells per well, cultured for 24 hours, and then treated with 1 mM hydrogen peroxide (H2O2) and treated with Selcopintide at concentrations of 1 μg/mL, 10 μg/mL, 100 μg/mL, and 500 μg/mL for 24 hours. Untreated CCD986SK cells were used as the control.
The WST-8 solution was added to each well and allowed to react for one hour, and then absorbance was measured at 450 nm using a microplate reader and compared.

hDPCs [5] = test: Immunofluorescence staining with γ-H2A.X (DNA damage marker); assay type: cell-based, human; settings: 1 mM H2O2, 10 μg/mL Selcopintide, 24 hours, vs 1 mM H2O2 group
Description: Cultured hDPCs were seeded into 35 mm culture dishes for a confocal microscope at a density of 1×10^5 cells, cultured for 24 hours, and then treated with 1 mM H2O2 and treated with 100 ng/mL of rCPNE7. After 24 hours, the cells were fixed with 4% paraformaldehyde.
Immunofluorescence staining using a γ-H2A.X antibody was performed on the fixed cells to compare intensity.
Cultured hDPCs were seeded into 35 mm culture dishes for a confocal microscope at a density of 1×10^5 cells, cultured for 24 hours, and then treated with 1 mM H2O2 and treated with 10 μg/mL of Selcopintide. After 24 hours, the cells were fixed with 4% paraformaldehyde.

[6] = tested on: cardiomyocytes (H9C2 cell line); test: Optical microscope observation of cardiomyocytes after H2O2 and Selcopintide; assay type: cell-based; settings: H9C2, 1 mM H2O2, Selcopintide 1, 10, 100 and 500 μg/mL, 24 hours; compared to H2O2-only-treated group
Description: Cultured H9C2 cells were seeded into 6-well plates at a density of 1×10^5 cells per well, cultured for 24 hours, and then treated with 1 mM hydrogen peroxide (H2O2) and treated with Selcopintide at concentrations of 1 μg/mL, 10 μg/mL, 100 μg/mL, and 500 μg/mL for 24 hours. Untreated H9C2 cells were used as the control.

H9C2 cells [7] = test: Amount of living cells by WST-8 in cardiomyocytes; assay type: cell-based; settings: H9C2, 1 mM H2O2, 1, 10, 100 and 500 μg/mL Selcopintide, 24 hours; compared to H2O2-only-treated group
Description: Cultured H9C2 cells were seeded into 96-well plates at a density of 3×10^3 cells per well, cultured for 24 hours, and then treated with 1 mM hydrogen peroxide (H2O2) and treated with Selcopintide at concentrations of 1 μg/mL, 10 μg/mL, 100 μg/mL, and 500 μg/mL for 24 hours. Untreated H9C2 cells were used as the control.
(§1) The WST-8 solution was added to each well and allowed to react for 1 hour, and then absorbance was measured at 450 nm using a microplate reader and compared.

[8] = tested on: dermal fibroblast (CCD986SK) cells; test: Optical microscope observation of dermal fibroblasts after H2O2 and Selcopintide; assay type: cell-based; settings: 24 hours
Description: Cultured CCD986SK cells were seeded into 6-well plates at a density of 1×10^5 cells per well, cultured for 24 hours, and then treated with 1 mM hydrogen peroxide (H2O2) and treated with Selcopintide at concentrations of 1 μg/mL, 10 μg/mL, 100 μg/mL, and 500 μg/mL for 24 hours. Untreated CCD986SK cells were used as the control.

hDPC cells = test: Amount of living cells by WST-8; assay type: cell-based, human; settings: hDPCs, 1 mM H2O2, 1 μg/mL and 10 μg/mL Selcopintide, 24 hours; compared to H2O2-only-treated group
Description: Cultured hDPC cells were seeded into 96-well plates at a density of 3×10^3 cells per well, cultured for 24 hours, and then treated with 1 mM hydrogen peroxide (H2O2) and treated with Selcopintide at concentrations of 1 μg/mL, 10 μg/mL, 100 μg/mL, and 500 μg/mL for 24 hours. Untreated hDPCs were used as the control.
as §1

H9C2 cells [9] = test: B-gal staining, cell aging in cardiomyocytes; assay type: cell-based; settings: H9C2, 1 mM H2O2, Selcopintide 1, 10, 100 and 500 μg/mL, 24 hours; compared to H2O2-only-treated group
Description: Cultured H9C2 was seeded into 6-well plates at a density of 1×10^5 cells, cultured for 24 hours, and then treated with 1 mM H2O2 and treated with 1 μg/mL, 10 μg/mL, 100 μg/mL, and 500 μg/mL of Selcopintide. After 24 hours, the cells were fixed with 4% paraformaldehyde.
Next, B-gal staining was performed on the fixed cells for 24 hours to compare the degree of cell aging. 24 hours after treatment with 1 mM H2O2, a large number of B-gal positive H9C2 cells were identified.

[10] = tested on: endogenous antioxidant enzymes in hDPC cells; test: mRNA levels of endogenous antioxidant enzymes by RT-PCR; assay type: cell-based, human; settings: hDPCs, 1 mM H2O2, CPNE7 recombinant protein 100 ng/mL or Selcopintide 10 ug/mL
Description: Cultured hDPCs were seeded into 60 mm culture dishes at a density of 4×10^5 cells, cultured for 24 hours, and then treated with 1 mM H2O2 and treated with the CPNE7 recombinant protein (100 ng/mL) and Selcopintide (10 ug/mL). After 30 minutes and one hour, the mRNA levels of Sod1, 2, and 3, catalase, Gpx7, Hmox1, and Txmd1 were checked.

[11] = 1 mM H2O2, Selcopintide 1, 10, 100 and 500 μg/mL, compared to H2O2-only-treated group

## KYKQKRRSYK (Novel peptide) [Selcopintide]
hDPCs [1]
  amount of reactive oxygen species (DCFDA): decreased and became significant at approximately one hour
CCD986SK cells [2]
  number of B-gal positive CCD986SK cells: significantly reduced
[3]; 1 mM H2O2, 1 μg/mL and 10 μg/mL treatment groups
  cell viability (optical microscope): high
[3]; [11]
  cell viability (optical microscope): higher
CCD986SK cells [4]
  cell viability (WST-8, absorbance 450 nm): significantly higher
hDPCs [5]
  accumulation of DNA damage (γ-H2A.X intensity): significantly reduced
[6]
  cell viability (optical microscope): higher
H9C2 cells [7]
  cell viability (WST-8, absorbance 450 nm): significantly higher
[8]; 1 mM H2O2, 1 μg/mL and 10 μg/mL of Selcopintide
  significance of higher cell viability (optical microscope): highest
[8]; [11]
  cell viability (optical microscope): higher
hDPC cells
  cell viability (WST-8, absorbance 450 nm): significantly higher
H9C2 cells [9]
  number of B-gal positive H9C2 cells: significantly reduced
[10]; after 30 minutes, compared to H2O2-only-treated group
  mRNA of endogenous antioxidant enzymes Sod1, 2, and catalase: significantly increased
[10]; after one hour
  mRNA of Sod1 and Gpx7, and Hmox1 and Txrnd1: significantly increased
